Results as given in patent publication US20040248848A1, “Use of specific dose of fondaparinux sodium for the treatment of acs” (priority 2004, published 2004).

How the values were obtained:
[1] = system: patients with unstable angina/non Q-wave MI; assay: Dose ranging study in unstable angina: primary efficacy evaluation (composite of death, AMI, recurrent ischemia); type: in vivo, human; details: for AMI n (%) / Composite endpoint n (%) / Death (not related to bleeding) n (%) / Recurrent ischemia n (%) (Mortara data) / Symptomatic recurrent ischemia n (%): first active injection to Day 9, per protocol excluding insufficient Mortara data
Procedure: (§1) A double blind, randomized, controlled dose ranging study was performed testing in parallel four fondaparinux sodium daily dose levels (2.5, 4.0, 8.0 and 12.0 mg) and a dose regimen of enoxaparin (1 mg/Kg bid=twice daily). Efficacy (composite parameter of death, AMI, recurrent ischemia) and safety of the respective doses of fondaparinux sodium were assessed in patients with unstable angina/non Q-wave MI. Further, safety and efficacy of the four different dose levels of fondaparinux sodium and enoxaparin 1 mg/Kg bid were compared.
The primary efficacy endpoint consisted of the composite of the following ischeric events starting from first active drug administration up to and including Day 9 (with Day 1 being the day of first active drug administration):
Death from any cause except for death related to bleeding
Acute myocardial infarction (AMI), according to the definition in the protocol
Symptomatic recurrent ischemia (excluding episodes of ischemia during or at any time after CABG (Coronary Artery Bypass Graft) or PTCA (Percutaneous Transluminal Coronary Angioplasty)) or any ischemia on the 48-h continuous 12-lead ECG monitoring (Mortara).
In the event a patient experienced one of these events, the binary composite outcome was regarded as a treatment failure. In contrast, if none of the above events applied, the composite ischemic outcome was considered as a treatment success.
(§2) The primary analysis for efficacy parameters was performed on the per protocol (PP) population. The choice of the patients to be excluded from PP population for efficacy analyses was defined before unblinding the trial.

[2] = system: patients with unstable angina/non Q-wave MI; assay: Dose ranging study: secondary efficacy analysis (clinical endpoints); type: in vivo, human; details: for AMI / Death (not related to bleeding) / Death or AMI / Death or AMI or recurrent ischemia (Symptomatic) / Recurrent Ischemia (Symptomatic): first active injection to Day 9, per protocol including insufficient Mortara data
Procedure: as §1, §2

[3] = system: patients with unstable angina/non Q-wave MI; assay: Dose ranging study: safety analysis, adjudicated bleeding events; type: in vivo; details: for Any bleeding event n (%) / Major bleeding event n (%) / Minor bleeding event n (%): first active injection to Day 9, all treated patients
Procedure: as §1
The primary safety endpoint was the incidence of major bleeding from first active drug administration up to and including Day 9 as adjudicated by a blinded Central Adjudication Committee (CAC). The incidence of any major or minor bleeding was considered as a secondary safety endpoint.
(§3) The safety analysis was performed on the ‘all treated patients’ (ATP) population.

[4] = system: patients with unstable angina/non Q-wave MI; assay: Dose ranging study: safety analysis, deaths; type: in vivo, human; details: for Patients with SAE from First injection Leading to death after day 30 / Patients with SAE from First injection Leading to death between first injection and day 30 / Total deaths reported: all treated patients; for Total deaths reported: first active injection onwards
Procedure: as §1
Other safety endpoints include deaths and all adverse events (latter not reported here).
as §3

CO[C@H]1O[C@H](COS(=O)(=O)O)[C@@H](O[C@@H]2O[C@@H](C(=O)O)[C@@H](O[C@H]3O[C@H](COS(=O)(=O)O)[C@@H](O[C@@H]4O[C@H](C(=O)O)[C@@H](O[C@H]5O[C@H](COS(=O)(=O)O)[C@@H](O)[C@H](O)[C@H]5NS(=O)(=O)O)[C@H](O)[C@H]4O)[C@H](OS(=O)(=O)O)[C@H]3NS(=O)(=O)O)[C@H](O)[C@H]2OS(=O)(=O)O)[C@H](O)[C@H]1NS(=O)(=O)O [Fondaparinux sodium, methyl O-(2-deoxy-2-sulfoamino-6-O-sulfo-α-D-glucopyranosyl)-(1→4)-O-(β-D-glucopyranosyluronic acid)-(1→4)-O-(2-deoxy-2-sulfoamino-3,6-di-O-sulfo-α-D-glucopyranosyl)-(1→4)-O-(2-O-sulfo-α-L-idopyranosyluronic acid)-(1→4)-2-deoxy-2-sulfoamino-6-O-sulfo-α-D-glucopyranoside]
AMI n (%) ([1]; 2.5 mg daily (N = 203)): 1 (0.5%) n (%)
Composite endpoint n (%) ([1]; 2.5 mg daily (N = 203)): 61 (30.0%) n (%)
Death (not related to bleeding) n (%) ([1]; 2.5 mg daily (N = 203)): 2 (1.0%) n (%)
Recurrent ischemia n (%) (Mortara data) ([1]; 2.5 mg daily (N = 203)): 47 (23.2%) n (%)
Symptomatic recurrent ischemia n (%) ([1]; 2.5 mg daily (N = 203)): 26 (12.8%) n (%)
AMI n (%) ([1]; 4 mg daily (N = 177)): 3 (1.7%) n (%)
Composite endpoint n (%) ([1]; 4 mg daily (N = 177)): 77 (43.5%) n (%)
Death (not related to bleeding) n (%) ([1]; 4 mg daily (N = 177)): 5 (2.8%) n (%)
Recurrent ischemia n (%) (Mortara data) ([1]; 4 mg daily (N = 177)): 63 (35.6%) n (%)
Symptomatic recurrent ischemia n (%) ([1]; 4 mg daily (N = 177)): 33 (18.6%) n (%)
AMI n (%) ([1]; 8 mg daily (N = 173)): 5 (2.9%) n (%)
Composite endpoint n (%) ([1]; 8 mg daily (N = 173)): 71 (41.0%) n (%)
Death (not related to bleeding) n (%) ([1]; 8 mg daily (N = 173)): 1 (0.6%) n (%)
Recurrent ischemia n (%) (Mortara data) ([1]; 8 mg daily (N = 173)): 55 (31.8%) n (%)
Symptomatic recurrent ischemia n (%) ([1]; 8 mg daily (N = 173)): 29 (16.8%) n (%)
AMI n (%) ([1]; 12 mg daily (N = 187)): 4 (2.1%) n (%)
Composite endpoint n (%) ([1]; 12 mg daily (N = 187)): 65 (34.8 %) n (%)
Death (not related to bleeding) n (%) ([1]; 12 mg daily (N = 187)): 1 (0.5%) n (%)
Recurrent ischemia n (%) (Mortara data) ([1]; 12 mg daily (N = 187)): 56 (29.9%) n (%)
Symptomatic recurrent ischemia n (%) ([1]; 12 mg daily (N = 187)): 28 (15.0%) n (%)
AMI n (%) ([1]; All doses pooled (N = 740)): 13 (1.8%) n (%)
Composite endpoint n (%) ([1]; All doses pooled (N = 740)): 274 (37.0%) n (%)
Death (not related to bleeding) n (%) ([1]; All doses pooled (N = 740)): 9 (1.2%) n (%)
Recurrent ischemia n (%) (Mortara data) ([1]; All doses pooled (N = 740)): 221 (29.9%) n (%)
Symptomatic recurrent ischemia n (%) ([1]; All doses pooled (N = 740)): 116 (15.7%) n (%)
efficacy compared with enoxaparin 1 mg/Kg bid ([1]; all fondaparinux sodium doses): at least as effective as enoxaparin
incidence of the composite endpoint ([1]; all fondaparinux sodium groups pooled): 37.0%
dose-response for the primary endpoint ([1]; four fondaparinux sodium groups (2.5, 4.0, 8.0, 12.0 mg)): No dose-response
AMI ([2]; 2.5 mg daily (N = 210)): 1 (0.5%) n (%)
Death (not related to bleeding) ([2]; 2.5 mg daily (N = 210)): 2 (1.0%) n (%)
Death or AMI ([2]; 2.5 mg daily (N = 210)): 3 (1.4%) n (%)
Death or AMI or recurrent ischemia (Symptomatic) ([2]; 2.5 mg daily (N = 210)): 27 (12.9%) n (%)
Recurrent Ischemia (Symptomatic) ([2]; 2.5 mg daily (N = 210)): 26 (12.4%) n (%)
death or AMI compared with the other fondaparinux sodium groups ([2]; 2.5 mg group): fewer patients tended to experience death or AMI
AMI ([2]; 4 mg daily (N = 185)): 3 (1.6%) n (%)
Death (not related to bleeding) ([2]; 4 mg daily (N = 185)): 5 (2.7%) n (%)
Death or AMI ([2]; 4 mg daily (N = 185)): 8 (4.3%) n (%)
Death or AMI or recurrent ischemia (Symptomatic) ([2]; 4 mg daily (N = 185)): 39 (21.1%) n (%)
Recurrent Ischemia (Symptomatic) ([2]; 4 mg daily (N = 185)): 33 (17.8%) n (%)
AMI ([2]; 8 mg daily (N = 183)): 5 (2.7%) n (%)
Death (not related to bleeding) ([2]; 8 mg daily (N = 183)): 1 (0.5%) n (%)
Death or AMI ([2]; 8 mg daily (N = 183)): 6 (3.3%) n (%)
Death or AMI or recurrent ischemia (Symptomatic) ([2]; 8 mg daily (N = 183)): 33 (18.0%) n (%)
Recurrent Ischemia (Symptomatic) ([2]; 8 mg daily (N = 183)): 29 (15.8%) n (%)
AMI ([2]; 12 mg daily (N = 199)): 4 (2.0%) n (%)
Death (not related to bleeding) ([2]; 12 mg daily (N = 199)): 1 (0.5%) n (%)
Death or AMI ([2]; 12 mg daily (N = 199)): 5 (2.5%) n (%)
Death or AMI or recurrent ischemia (Symptomatic) ([2]; 12 mg daily (N = 199)): 30 (15.1%) n (%)
Recurrent Ischemia (Symptomatic) ([2]; 12 mg daily (N = 199)): 28 (14.1%) n (%)
Any bleeding event n (%) ([3]; 2.5 mg daily (N = 229)): 9 (3.9%) n (%)
Major bleeding event n (%) ([3]; 2.5 mg daily (N = 229)): 0 (0.0%) n (%)
Minor bleeding event n (%) ([3]; 2.5 mg daily (N = 229)): 9 (3.9%) n (%)
major bleedings observed ([3]; 2.5 mg group): No major bleedings were observed
Any bleeding event n (%) ([3]; 4 mg daily (N = 222)): 12 (5.4%) n (%)
Major bleeding event n (%) ([3]; 4 mg daily (N = 222)): 3 (1.4%) n (%)
Minor bleeding event n (%) ([3]; 4 mg daily (N = 222)): 9 (4.1%) n (%)
Any bleeding event n (%) ([3]; 8 mg daily (N = 223)): 12 (5.4%) n (%)
Major bleeding event n (%) ([3]; 8 mg daily (N = 223)): 4 (1.8%) n (%)
Minor bleeding event n (%) ([3]; 8 mg daily (N = 223)): 9 (4.0%) n (%)
Any bleeding event n (%) ([3]; 12 mg daily (N = 238)): 11 (4.6%) n (%)
Major bleeding event n (%) ([3]; 12 mg daily (N = 238)): 1 (0.4%) n (%)
Minor bleeding event n (%) ([3]; 12 mg daily (N = 238)): 10 (4.2%) n (%)
differences between fondaparinux sodium groups and the enoxaparin group for safety parameters ([3]; all dose groups): No significant differences
differences between treatment groups for major, minor or any bleeding ([3]; all dose groups vs enoxaparin): No relevant differences
Patients with SAE from First injection Leading to death after day 30 ([4]; 2.5 mg daily (N = 229)): 1 (0.4%) Number (%)
Patients with SAE from First injection Leading to death between first injection and day 30 ([4]; 2.5 mg daily (N = 229)): 3 (1.3%) Number (%)
Total deaths reported ([4]; 2.5 mg daily (N = 229)): 4 (1.7%) Number (%)
Patients with SAE from First injection Leading to death after day 30 ([4]; 4 mg daily (N = 222)): 3 (1.4%) Number (%)
Patients with SAE from First injection Leading to death between first injection and day 30 ([4]; 4 mg daily (N = 222)): 7 (3.2%) Number (%)
Total deaths reported ([4]; 4 mg daily (N = 222)): 10 (4.5%) Number (%)
Patients with SAE from First injection Leading to death after day 30 ([4]; 8 mg daily (N = 223)): 2 (0.9%) Number (%)
Patients with SAE from First injection Leading to death between first injection and day 30 ([4]; 8 mg daily (N = 223)): 4 (1.8%) Number (%)
Total deaths reported ([4]; 8 mg daily (N = 223)): 6 (2.7%) Number (%)
Patients with SAE from First injection Leading to death after day 30 ([4]; 12 mg daily (N = 238)): 1 (0.4%) Number (%)
Patients with SAE from First injection Leading to death between first injection and day 30 ([4]; 12 mg daily (N = 238)): 6 (2.5%) Number (%)
Total deaths reported ([4]; 12 mg daily (N = 238)): 7 (2.9%) Number (%)
differences in the percentage of deaths between treatment groups ([4]; all dose groups vs enoxaparin): No relevant differences
